Entries after “also recorded” stand apart in the source; their conditions may differ. Structures can show the parent of a compound that is named as a salt.
Tests used:
[1] = test system: HEK293T lysates; test: Chemoproteomic profiling of HEK293T lysates (protein-level enrichment); type: biochemical, Human
Protocol: In lysate tryptophan probe treatment for protein-level characterization: HEK293T cell pellets were suspended in native lysis buffer (50 mM HEPES pH 7.5, 150 mM sodium chloride (NaCl), 1.5 mM MgCl2, 1 mM DTT, 0.8% NP-40, 5% glycerol, and 1x protease inhibitors (Thermo)) at 2x the pellet volume. The samples were sonicated on ice for 30 seconds at 20% amplitude with a 2 second pulse ON and 3 second pulse OFF. Cell debris was removed by centrifugation at 20,000×g for 20 minutes at 4° C. Protein concentration was determined by bicinchoninic acid (BCA) (Pierce) and diluted down to 5 mg/mL with ChemProt buffer (50 mM HEPES pH 7.5, 150 mM NaCl, 1.5 mM MgCl2, 1 mM DTT, 0.4% NP-40, and 1x protease inhibitors (Thermo). 5 mg cell lysates were treated with 100x stocks of the tryptophan probes (pyridinium salts 1a, 1b, and 2b) to generate final concentrations (0, 1, 10, and 100 μM) in 1% DMSO. Lysates were incubated for 1 hour at 4° C. followed by photo-activation at respective wavelengths for 20 minutes at 4° C. Excess probe was removed using Sephadex G-25 PD-10 desalting columns (GE Healthcare) pre-equilibrated with 50 mM HEPES pH 7.5, 150 mM NaCl, 1.5 mM MgCl2, and 0.4% NP-40. The samples were then treated with 100 μL Neutravidin resin as a 50% slurry (Peirce). The samples were incubated overnight on a rotating apparatus at R.T. The following day, the beads were transferred to a MobiCol column (Boca Scientific), washed 3× with phosphate buffered saline (PBS) containing 0.2% SDS, washed 3x with PBS, and the enriched proteins were eluted with 2×NuPAGE lithium dodecyl sulfate (LDS) containing 10 mM DTT (Pierce) and heated for 30 minutes at 55° C. The eluent was collected and subsequently treated with 20 mM iodoacetamide (Pierce) for 30 minutes at R.T. protected from light. Samples were passed through detergent removal columns (Pierce) that were pre-equilibrated with 50 mM HEPES pH 8.0. The samples were treated with 2.5 μg Trypsin/LysC (Promega) at 37° C. for 16 hours. The following day, the sample was collected and prepped for isobaric labeling with TMT reagents (Thermo) as specified by the manufacturer.
Quantitative proteomics by two-dimensional nano liquid chromatography-tandem mass spectrometry (nLC-MS/MS): For protein-level characterization, the TMT-labeled sample were reconstituted in 0.1% formic acid (FA)/2% acetonitrile for offline high-pH reversed phase separation (RP10) using a Dionex UltiMate 3000 high-performance liquid chromatography (HPLC) system with fraction collection using Chromeleon v.6.8 (Thermo) software. Separation was achieved on a Waters Xbridge C18 3.5 μm 2.1×150 mm HPLC column (Waters) using a flow rate of 250 μL min-1 and the following ternary gradient and conditions: mobile phase A=water (HPLC grade), mobile phase B=acetonitrile (HPLC grade), and mobile phase C=200 mM ammonium acetate, pH 10. Mobile phase C is held at 10% throughout gradient. Starting conditions are 89% mobile phase A and 1% mobile phase B, ramping mobile phase B to 80% over 65 min. Fractions were collected in 96-well plates at 100 see per well. Fractions were reduced down to 12 fractions, dried, and reconstituted in 0.1% FA/2% acetonitrile for nLC-MS/MS. All data were acquired using a Orbitrap Fusion Lumos coupled to an Easy-nLC 1200 nanoflow liquid chromatograph operating at 300 nL min^−1. Peptides were cleaned up using a 1 cm online custom trap then eluted on a custom 20 cm laser pulled 75 μm column with C18 resin. Peptides were quantified using the synchronous precursor selection (SPS-MS3) or HCD method for TMT quantitation with 120k MS1 resolving power, 50 ms max injection time and 100% AGC. MS2 spectra were selected using the top ten most abundant features with a charge state between 2-6 using CID (collision induced dissociation) in the ion trap. The AGC was set to 100% with an isolation width of 0.7. MS3 was performed on the top 10 most abundant MS2 features between 400-1600 amu with a collision energy of 55%, AGC of 250%, and 50k resolution. […]

[2] = target: T1, recombinant NPM1 C-terminal domain (residues 240-294) (Homo sapiens, UniProt P06748); test: In vitro NPM1 C-terminal domain labeling (Western); type: biochemical
T1 construct: made in house; host or cells: NiCo21(DE3) E. coli
T1 sequence (P06748 240-294): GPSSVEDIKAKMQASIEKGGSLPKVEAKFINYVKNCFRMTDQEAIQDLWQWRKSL
Text: NPM1 Construct design: NPM1 residues 240-294 corresponding to the C-terminal DNA binding domain were fused to a combined 6×His-maltose binding protein (MBP) solubility tag on the N-terminus. An HRV 3C protease cleavage sequence (LEVLFQ/GP) was placed between the tags and NPM1 sequence and upon cleavage the remaining GP sequence corresponds to the NPM1 240-241 residues resulting in a natural peptide sequence without additional residues.
In vitro NPM1 C-terminal domain labeling and characterization: Labeling of recombinant NPM1 with the pyridinium salt 2b was performed with the following conditions: 10 μM NPM1 was treated with DMSO or 100 μM pyridinium salt 2b (2% DMSO) in 50 mM HEPES pH 7.5, 150 mM NaCl, 1.5 mM MgCl2, and 100 μM glutathione (GSH). Samples were irradiated at 450 nm (Kessil PR160L-440) at 100% intensity for 15 minutes at room temperature or 50° C. The reaction mixture was quenched with the addition of 4X LDS buffer (Invitrogen) containing 10 mM DTT (Pierce) and boiled for 10 minutes before resolving proteins on 4-12% Bis-Tris NuPAGE gels (Invitrogen), transferred onto a Trans-Blot Turbo Mini 0.2 μm nitrocellulose membrane (BioRad), blocked with 5% BSA in tris-buffered saline with Tween-20 (TBST), and incubated with HRP-linked anti-biotin (Cell Signaling Technology, #7075).

reactivity in the absence of photoirradiation ([1]; enrichment profiles with and without photoirradiation): thermal inertness
labeling of the construct (Western analysis) ([2]; 10 μM NPM1, 100 μM probe, 100 μM glutathione, about 440 nm, about 15 minutes): photo-dependent labeling
temperature dependence of labeling ([2]; labeling at about 50° C. versus room temperature): higher level of labeling
Structure (SMILES): COc1ccc2cc(-c3cc(C)[n+](N(C)C(=O)OCCCCC[C@H]4SC[C@H]5NC(=O)N[C@H]54)c(C)c3)ccc2c1 (stereo in doubt) [Pyridinium salt 2b, 4-(6-methoxynaphthalen-2-yl)-2,6-dimethyl-1-(methyl(((5-((3aR,4R,6aS)-2-oxohexahydro-1H-thieno[3,4-d]imidazol-4-yl)pentyl)oxy)carbonyl)amino)pyridin-1-ium tetrafluoroborate]
proteome labeling profile, streptavidin-HRP Western blot of elution profiles ([1]; 0-100 μM probe, with and without irradiation, before digestion): concentration and optically dependent proteome labeling profiles; also recorded: dose-response profiles
number of proteins identified (from ≥2 unique peptides) with ≥2-fold enrichment versus DMSO ([1]; about 100 μM probe, 60 min incubation, 20 min irradiation (302 nm 1a, 320 nm 1b, 440 nm 2b)): 523 proteins
percentage of unique enriched proteins ([1]; comparison of proteome coverage of probes 1a, 1b, 2b at 100 μM): about 69%
